Blank lines part the entries; values can stand above or below the molecule they belong to.
How the values were obtained:
[1] = target: T1, TAS2R16 (Homo sapiens, UniProt Q9NYV7); test: cell-based; parameters: bioluminescence intracellular calcium release assay, mt-clytin II with coelenterazine, Gα16-gust44 co-expressed
T1 sequence (Q9NYV7 1-291): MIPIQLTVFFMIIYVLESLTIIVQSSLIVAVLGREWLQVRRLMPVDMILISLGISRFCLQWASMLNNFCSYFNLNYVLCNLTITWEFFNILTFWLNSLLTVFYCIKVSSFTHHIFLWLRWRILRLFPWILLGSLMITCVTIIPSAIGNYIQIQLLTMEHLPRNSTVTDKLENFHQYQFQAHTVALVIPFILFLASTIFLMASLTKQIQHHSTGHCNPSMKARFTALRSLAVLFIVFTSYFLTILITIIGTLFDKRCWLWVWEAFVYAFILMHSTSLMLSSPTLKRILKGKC
Method: (§1) The bioluminescence-based assay was used to characterize the functional properties of various human TAS2Rs. For each TAS2R, one or more of its cognate agonists were tested against either the AD-293 or 293AD cell line, or both. Both cell lines were used because of their stronger adherent properties, which facilitate media changes on the day of the FLIPR assay. However, because both cell lines are generated differently, some disparities in gene expression capacities due to a myriad of factors could be reasonably expected. Consequently, some TAS2Rs may be well expressed in one cell line but not the other, and the ability of each cell line to express a particular TAS2R needs to be empirically evaluated. […] However, deviations between our experimental and published potency values for some ligands (i.e. TAS2R4: stevioside; TAS2R7: Mg^2+, Mn^2+, Zn^2+) were observed, which could be attributed to the use of a different assay format, readout and processing parameters, use of different cell lines with resultant potential differences in TAS2R expression levels, and quality and methodological differences in ligand preparations. Because potency values could be obtained that were consistent with the literature, or close to the reported minimal effective stimulatory concentration upon further testing of other TAS2R4/7 agonists, the deviation in EC50 values could be largely attributed to qualitative differences in the ligands (Supplementary Fig. S3). Calcium responses induced by the tested cognate agonists reflected specific TAS2R stimulation. […] Poor localization of TAS2Rs to the cell surface in heterologous systems was associated with diminished receptor signaling output and functionality. One of the more commonly used strategies to enhance the density of TAS2Rs at the cell surface involves fusing an N-terminal signal sequence of either the SST3, or Rho receptor to the TAS2R[24]. We adopted this approach, specifically co-expressing SST3-TAS2R with Gα16-gust44 chimera and mt-clytin II, to develop and validate a bioluminescence-based TAS2R intracellular calcium release assay. A strength of the bioluminescence-based TAS2R assay is its capacity to generate greater assay spans than that of fluorescence-based assays, which could be largely attributed to the utilization of mt-clytin II as the calcium reporter. Calcium-binding photoproteins in general are useful reporters for studying calcium-mediated signaling processes. […] Its fast calcium binding and dissociation kinetics render it a suitable indicator to report on swift, transient changes in calcium ion concentrations and study rapid receptor-ligand interactions. Mitochondrial targeting of clytin II was crucial to generating higher luminescence intensity than that of cytosol-localized clytin II, as inositol 1,4,5-triphosphate (IP3)-induced calcium release from the ER subsequent to ligand activation is thought to result in the formation of ER-proximal, calcium-rich microdomains that enabled the closely apposed mitochondria to sense a higher initial rise in calcium concentration than would be experienced by the bulk cytosol.

[2] = target: T2, TAS2R43 (Homo sapiens, UniProt P59537); test: bioluminescence (mt-clytin II) intracellular calcium release; assay type: cell-based
T2 construct: AD-293 cells; co-expressed Galpha16-gust44 chimera and mt-clytin II reporter (type 2 multigene vector)
T2 sequence (P59537 2-309): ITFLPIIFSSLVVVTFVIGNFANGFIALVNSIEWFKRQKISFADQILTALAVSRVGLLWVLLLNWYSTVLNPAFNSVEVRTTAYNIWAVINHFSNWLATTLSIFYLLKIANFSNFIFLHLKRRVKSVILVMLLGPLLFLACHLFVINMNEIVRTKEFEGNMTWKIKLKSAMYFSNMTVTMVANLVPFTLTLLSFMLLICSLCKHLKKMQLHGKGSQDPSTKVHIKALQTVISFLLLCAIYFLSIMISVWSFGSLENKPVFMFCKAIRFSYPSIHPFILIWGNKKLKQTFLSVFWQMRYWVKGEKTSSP
Description: bioluminescence (mt-clytin II) intracellular calcium release on TAS2R43 | TAS2R43, both aristolochic acid and aloin could be considered full agonists | indicating the partial agonist activity of caffeine towards TAS2R43

[3] = target: T3, TAS2R3 (Homo sapiens, UniProt Q9NYW6); test: cell-based; parameters: bioluminescence intracellular calcium release assay, mt-clytin II with coelenterazine, Gα16-gust44 co-expressed; conditions: 293AD cells
T3 sequence (Q9NYW6 1-316): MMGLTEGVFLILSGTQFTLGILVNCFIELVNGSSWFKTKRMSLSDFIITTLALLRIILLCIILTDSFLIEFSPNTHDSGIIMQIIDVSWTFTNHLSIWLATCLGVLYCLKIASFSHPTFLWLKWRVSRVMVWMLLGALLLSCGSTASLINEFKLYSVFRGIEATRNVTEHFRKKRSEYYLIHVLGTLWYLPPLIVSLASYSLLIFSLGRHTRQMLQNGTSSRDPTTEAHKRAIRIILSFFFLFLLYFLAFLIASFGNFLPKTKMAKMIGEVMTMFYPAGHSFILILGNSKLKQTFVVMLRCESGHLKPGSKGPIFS
Method: as §1

[4] = target: T4, TAS2R9 (Homo sapiens, UniProt Q9NYW1); test: cell-based; parameters: bioluminescence intracellular calcium release assay, mt-clytin II with coelenterazine, Gα16-gust44 co-expressed; conditions: 293AD cells
T4 sequence (Q9NYW1 1-312): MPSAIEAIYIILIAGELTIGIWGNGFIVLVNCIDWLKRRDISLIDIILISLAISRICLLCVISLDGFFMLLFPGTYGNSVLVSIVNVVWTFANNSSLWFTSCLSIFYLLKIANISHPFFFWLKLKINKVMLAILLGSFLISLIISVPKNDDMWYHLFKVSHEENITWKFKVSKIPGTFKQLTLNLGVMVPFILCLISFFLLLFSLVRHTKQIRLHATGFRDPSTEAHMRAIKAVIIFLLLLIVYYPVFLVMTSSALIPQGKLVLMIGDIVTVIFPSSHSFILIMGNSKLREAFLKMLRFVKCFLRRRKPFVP
Method: as §1

[5] = target: T5, TAS2R20 (Homo sapiens, UniProt P59543); test: cell-based; parameters: bioluminescence intracellular calcium release assay, mt-clytin II with coelenterazine, Gα16-gust44 co-expressed
T5 sequence (P59543 1-309): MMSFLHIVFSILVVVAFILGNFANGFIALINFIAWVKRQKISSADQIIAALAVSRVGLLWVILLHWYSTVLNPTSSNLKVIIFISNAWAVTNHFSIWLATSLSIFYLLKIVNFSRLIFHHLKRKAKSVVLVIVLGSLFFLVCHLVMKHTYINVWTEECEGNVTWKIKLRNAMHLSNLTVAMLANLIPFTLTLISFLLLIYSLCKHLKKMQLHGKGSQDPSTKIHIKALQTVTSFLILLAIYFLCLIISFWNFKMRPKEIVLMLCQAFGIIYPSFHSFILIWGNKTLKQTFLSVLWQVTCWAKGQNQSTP
Method: as §1

[6] = target: T6, TAS2R14 (Homo sapiens, UniProt Q9NYV8); test: cell-based; parameters: species or system 293AD; bioluminescence intracellular calcium release assay, mt-clytin II with coelenterazine, Gα16-gust44 co-expressed
T6 sequence (Q9NYV8 1-317): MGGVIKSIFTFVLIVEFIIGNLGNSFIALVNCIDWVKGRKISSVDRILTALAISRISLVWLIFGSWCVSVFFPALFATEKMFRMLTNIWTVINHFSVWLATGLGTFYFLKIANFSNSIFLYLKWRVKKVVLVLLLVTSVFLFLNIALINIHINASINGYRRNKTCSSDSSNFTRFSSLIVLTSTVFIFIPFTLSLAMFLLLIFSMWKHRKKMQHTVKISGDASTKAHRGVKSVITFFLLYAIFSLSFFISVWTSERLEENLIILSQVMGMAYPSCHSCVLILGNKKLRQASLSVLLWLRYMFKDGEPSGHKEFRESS
Method: The bioluminescence-based assay was used to characterize the functional properties of various human TAS2Rs. For each TAS2R, one or more of its cognate agonists were tested against either the AD-293 or 293AD cell line, or both. […] We adopted this approach, specifically co-expressing SST3-TAS2R with Gα16-gust44 chimera and mt-clytin II, to develop and validate a bioluminescence-based TAS2R intracellular calcium release assay.

[7] = target: T7, TAS2R30 (Homo sapiens, UniProt P59541); test: cell-based; parameters: bioluminescence intracellular calcium release assay, mt-clytin II with coelenterazine, Gα16-gust44 co-expressed; conditions: 293AD cells
T7 sequence (P59541 1-319): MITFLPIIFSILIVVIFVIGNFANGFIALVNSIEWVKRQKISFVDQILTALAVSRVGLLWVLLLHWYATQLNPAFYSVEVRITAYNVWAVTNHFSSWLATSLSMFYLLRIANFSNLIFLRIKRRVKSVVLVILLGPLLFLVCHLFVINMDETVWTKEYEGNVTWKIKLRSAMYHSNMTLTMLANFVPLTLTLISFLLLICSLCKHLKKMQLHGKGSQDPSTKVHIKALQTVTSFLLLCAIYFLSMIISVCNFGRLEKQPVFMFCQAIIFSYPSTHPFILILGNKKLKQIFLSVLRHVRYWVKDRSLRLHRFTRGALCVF
Method: as §1

[8] = target: T8, TAS2R8 (Homo sapiens, UniProt Q9NYW2); test: cell-based; parameters: bioluminescence intracellular calcium release assay, mt-clytin II with coelenterazine, Gα16-gust44 co-expressed
T8 sequence (Q9NYW2 1-309): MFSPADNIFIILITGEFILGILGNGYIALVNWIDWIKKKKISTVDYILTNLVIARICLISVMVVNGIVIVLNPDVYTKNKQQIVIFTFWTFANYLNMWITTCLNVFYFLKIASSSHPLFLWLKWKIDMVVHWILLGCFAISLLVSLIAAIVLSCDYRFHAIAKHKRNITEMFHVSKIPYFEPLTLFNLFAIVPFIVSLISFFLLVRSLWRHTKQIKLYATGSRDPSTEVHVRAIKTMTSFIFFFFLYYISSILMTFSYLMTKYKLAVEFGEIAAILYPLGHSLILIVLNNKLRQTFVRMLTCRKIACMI
Method: as §1

[9] = target: T9, TAS2R10 (Homo sapiens, UniProt Q9NYW0); test: cell-based; parameters: bioluminescence intracellular calcium release assay, mt-clytin II with coelenterazine, Gα16-gust44 co-expressed
T9 sequence (Q9NYW0 1-307): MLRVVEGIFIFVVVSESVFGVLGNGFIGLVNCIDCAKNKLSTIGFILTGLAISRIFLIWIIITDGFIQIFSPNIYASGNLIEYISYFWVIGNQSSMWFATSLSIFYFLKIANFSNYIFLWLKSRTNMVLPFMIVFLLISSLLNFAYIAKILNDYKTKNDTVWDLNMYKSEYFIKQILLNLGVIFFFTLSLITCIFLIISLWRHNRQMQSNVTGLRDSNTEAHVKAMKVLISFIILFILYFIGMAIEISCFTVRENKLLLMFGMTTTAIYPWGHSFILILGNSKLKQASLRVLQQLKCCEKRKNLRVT
Method: as §1

[10] = target: T10, TAS2R13 (Homo sapiens, UniProt Q9NYV9); test: cell-based; parameters: bioluminescence intracellular calcium release assay, mt-clytin II with coelenterazine, Gα16-gust44 co-expressed; conditions: 293AD cells
T10 sequence (Q9NYV9 1-303): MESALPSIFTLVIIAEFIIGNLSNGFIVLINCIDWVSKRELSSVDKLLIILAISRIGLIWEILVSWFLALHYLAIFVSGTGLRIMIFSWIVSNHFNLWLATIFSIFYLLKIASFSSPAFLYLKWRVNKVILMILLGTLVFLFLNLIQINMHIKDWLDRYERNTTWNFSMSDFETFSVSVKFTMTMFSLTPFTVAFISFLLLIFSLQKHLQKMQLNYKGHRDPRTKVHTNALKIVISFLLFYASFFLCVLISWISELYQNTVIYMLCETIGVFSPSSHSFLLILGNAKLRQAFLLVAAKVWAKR
Method: as §1

Structure (SMILES): OC[C@H]1O[C@@H](Oc2ccc(O)cc2)[C@H](O)[C@@H](O)[C@@H]1O [Arbutin]
EC50 ([1]; AD-293 cells): 5 ± 1.2 mM

Structure (SMILES): CCN(CC)CCCC(C)Nc1ccnc2cc(Cl)ccc12 (stereo not shown) [Chloroquine diphosphate]
EC50 [3]: 45 ± 14 µM

Structure (SMILES): O=C(O)c1cc(=O)c2c(OCC(O)COc3cccc4oc(C(=O)O)cc(=O)c34)cccc2o1 [Cromolyn]
EC50 ([5]; 293AD cells): 35 ± 7 µM
EC50 ([5]; AD-293 cells): 73 ± 26 µM

Structure (SMILES): C=C(C)[C@@H]1[C@H]2OC(=O)[C@@H]1[C@]1(O)C[C@H]3O[C@]34C(=O)O[C@H]2[C@]14C [Picrotoxinin]
EC50 [6]: 54 ± 8.4 µM

Structure (SMILES): C=C[C@H]1[C@H](O[C@@H]2O[C@H](CO)[C@@H](O)[C@H](O)[C@H]2OC(=O)c2c(O)cc(O)cc2-c2cccc(O)c2)OC=C2C(=O)OCC[C@H]21 [Amarogentin]
EC50 [7]: 3 ± 1 µM

Structure (SMILES): CC[N+](CC)(CC(=O)Nc1c(C)cccc1C)Cc1ccccc1 [Denatonium benzoate]
EC50 ([8]; AD-293 cells): 1000 ± 100 µM

Structure (SMILES): COc1cccc2c1cc([N+](=O)[O-])c1c(C(=O)O)cc3c(c12)OCO3 [aristolochic acid]
EC50 [2]: 0.026 ± 0.003 µM

Structure (SMILES): COc1cc2c(cc1OC)[C@@]13CCN4CC5=CCO[C@H]6CC(=O)N2[C@H]1[C@H]6[C@H]5C[C@H]43 [Brucine]
EC50 ([9]; 293AD cells): 21 ± 6.5 µM
EC50 ([9]; AD-293 cells): 42 ± 3 µM

Structure (SMILES): O=Cc1ccccc1O[C@@H]1O[C@H](CO)[C@@H](O)[C@H](O)[C@H]1O [Helicin]
EC50 ([1]; AD-293 cells): 3 ± 0.2 mM

Structure (SMILES): O=C(N[C@H](CO)[C@H](O)c1ccc([N+](=O)[O-])cc1)C(Cl)Cl [Chloramphenicol]
EC50 ([8]; 293AD cells): 18 ± 2.7 µM
EC50 ([8]; AD-293 cells): 70 ± 12 µM

Now from value to molecule:

EC50 [2]: 390 ± 120 µM
Structure (SMILES): Cn1c(=O)c2c(ncn2C)n(C)c1=O [caffeine]

EC50 [4]: 4 ± 0.4 mM
Structure (SMILES): CN1CCN(CC(=O)N2c3ccccc3C(=O)Nc3cccnc32)CC1 [Pirenzepine]

EC50 [10]: 161 ± 16 µM
Structure (SMILES): CC[N+](C)(CC)CCOC(=O)C(O)(c1ccccc1)C1CCCCC1 (stereo not shown) [Oxyphenonium]

EC50 ([1]; 293AD cells): 0.4 ± 0.2 mM
EC50 ([1]; AD-293 cells): 2 ± 0.6 mM
Structure (SMILES): OCc1ccccc1O[C@@H]1O[C@H](CO)[C@@H](O)[C@H](O)[C@H]1O [Salicin]

EC50 [2]: 5 ± 3 µM
Structure (SMILES): O=C1c2c(O)cccc2C([C@@H]2O[C@H](CO)[C@@H](O)[C@H](O)[C@H]2O)c2cc(CO)cc(O)c21 (stereo partly shown) [aloin]

— publication PMC9587021, “Construction of a bioluminescence-based assay for bitter taste receptors (TAS2Rs)” (Scientific Reports, 2022)
